Data reported in US12144785B2, “Composition of vitamin K and vitamin D for treating or preventing cardiovascular disease” (NATTOPHARMA AS, priority 2002, dated 2024).

System: thoracic aorta
Assay: Aortic calcification in warfarin-treated rats: total calcium in thoracic aorta extract by atomic absorptiometry
Type: in vivo
Conditions: for Pre-formed calcium crystals / aortic calcification on high vitamin K diet: "high K": 6 weeks warfarin, then 6 weeks diet with 100 μg/g vitamin K, FIG. 6, means of K1 and K2 groups; for Difference between the outcomes for K1 and K2: high vitamin K diet after 6 weeks warfarin
Procedure: We performed and experiment using 48 rats. Each point in the various curves shown in FIGS. 3-6 is the mean of six rats, which were sacrificed. The thoracic aorta was dissected, homogenized, and precipitated calcium salts were dissolved in formic acid. The total calcium concentration in the extract was assessed by atomic absorptiometry, and is expressed as microgram calcium per gram of tissue.
Six of them were killed at baseline, six after 6 weeks, and the last six after 12 weeks. Apart from the cellular calcium, no accretion of calcium was observed during the test period. […] The protocol used involves the oral administration of a mixture of warfarin (3 mg/g of food) and vitamin K1 (1.5 mg/g of food) and is explained extensively in: H. M. H. Spronk et al, Tissue-specific utilization of menaquinone-4 results in the prevention of arterial calcification in warfarin-treated rats, Journal of Vascular Research 2003; 40:531-537. This treatment is designated as “low K”. Six rats were killed after 6 weeks of treatment, and another six after 12 weeks of treatment.
The other rats were first treated for six weeks with warfarin. One group of animals was subsequently fed the standard diet containing 5 μg vitamin K per g of food (indicated as “norm K”). […] Apparently, the presence of calcium precipitates is a sufficient trigger to continue further calcification (see FIG. 5) when using a normal diet.
Finally, we used two groups of six rats who had received the first 6-week treatment with warfarin, and a high vitamin K diet in the second 6-week period. One group received a diet containing […] of vitamin K1, the other one a diet containing 100 μg/g of vitamin K2 (menaquinone-4). Since there was no difference between the outcomes for K1 and K2, we present the means of both groups in FIG. 6 (designated as “high K”). […] This may be related to the relatively high dose used, and different efficacies may still be found from dose-response experiments. […] It may be expected that after prolonged treatment all calcified precipitates will dissolve by high vitamin K intake. The dose used for dissolving calcified precipitates in the aorta was 20 times the normal dose used (compared to the recommended allowance in humans). If extrapolated to humans the effective intake of vitamin K should thus be increased from 100 μg/day to 2 mg/day. Experiments in which lower doses are used will be initiated. However, it is likely that a similar effect will be observed at lower doses, even as low as 1-2 times the normal daily intake. This will depend upon factors such as vitamin K absorption since synthetic supplemented vitamin K is typically absorbed better (e.g. 10-20 fold) than nutritional vitamin K (e.g. which may be bound to chloroplasts in the food matrix).

For CC1=C(C/C=C(\C)CCC[C@H](C)CCC[C@H](C)CCCC(C)C)C(=O)c2ccccc2C1=O [vitamin K1, phylloquinone], the “Pre-formed calcium crystals / aortic calcification on high vitamin K diet” value was “dissolved to a great deal” and the “Difference between the outcomes for K1 and K2” value was “no difference”.

In the case of CC(C)=CCC/C(C)=C/CC/C(C)=C/CC/C(C)=C/CC1=C(C)C(=O)c2ccccc2C1=O [vitamin K2, menaquinone-4], the “Pre-formed calcium crystals / aortic calcification on high vitamin K diet” value was “dissolved to a great deal” and the “Difference between the outcomes for K1 and K2” value was “no difference”.

In the case of CC(=O)CC(c1ccccc1)c1c(O)c2ccccc2oc1=O (stereo not drawn) [warfarin], the “Calcium in the arterial wall” value ("low K": warfarin 3 mg/g food + vitamin K1 1.5 mg/g food, oral, 6 and 12 weeks, FIG. 4) was “constant increase”.

vitamin K was tested, and the “Aortic calcification after change to the standard diet” value ("norm K": 6 weeks warfarin, then standard diet with 5 μg vitamin K per g of food, FIG. 5) was “did not stop”.
